Experiment [1] deals with T1, human eIF4E protein (Homo sapiens, UniProt P06730).
T1 construct: purchased Novus NBP-45314
Briefly: Biochemical competitive binding assay (TR-FRET competition, EDA-m7GDP-ATTO-647N probe). The following applies: read-out: hEIF4E TR-FRET IC50. The procedure, abridged:
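IC50 values come from 4-parameter fits of the normalized 665/620 nm TR-FRET ratio. Compound was first incubated 15 min with 4 nM recombinant His-eIF4E bound to 2.5 nM Eu-anti-His antibody, then 15 min with 5 nM m7GDP-ATTO-647N tracer, in pH 7.5 HEPES buffer with 100 mM KCl, Tween-20 and BSA.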
(In TR-FRET formats the signal depends on donor and acceptor labels being close together.)

Experiment [2] relates to COLO 205 colorectal tumor cells. In words: Tumor cell viability inhibition assay (CellTiter-Glo 2.0, 72 hours). The class given is cell-based. The following applies: COLO 205 cell viability. The procedure, abridged: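 IC50 derived by 4-parameter fitting after normalizing luminescence to DMSO and max-inhibition wells. Compounds tested as 11 concentrations in 4-fold steps on COLO 205 cells seeded at 1500 per well in RPMI-1640/10% FBS; ATP content measured with CellTiter-Glo 2.0 after 72 h.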
For orientation: In ATP-based viability assays light output follows the ATP content of the culture.

The record followed here is patent publication US20240246918A1, “COMPOUNDS AND COMPOSITIONS AS EIF4E INHIBITORS AND THE USES THEREOF” (Ribometrix, Inc., priority 2022, published 2024).

Bounds are passed on as bounds.

T1 sequence (P06730 whole entry): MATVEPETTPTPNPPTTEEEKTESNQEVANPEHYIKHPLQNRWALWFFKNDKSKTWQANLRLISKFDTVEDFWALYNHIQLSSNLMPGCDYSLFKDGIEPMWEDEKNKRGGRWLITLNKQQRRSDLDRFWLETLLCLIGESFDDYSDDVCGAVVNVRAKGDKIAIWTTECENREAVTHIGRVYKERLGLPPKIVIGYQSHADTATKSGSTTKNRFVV

For orientation: IC50 means the concentration at which inhibition is half-maximal. `CCN(Cc1ccnc(OC)c1)C1CCc2nc(C)n(CCOc3ccc(Cl)cc3-c3cc(C)nc4c(C(=O)O)csc34)c(=O)c2C1` (stereo not shown) [Compound 129]: the IC50 is below 0.1 µM in experiment [1] and below 5 µM in experiment [2] (Homo sapiens, COLO 205, 72 h).

Regarding `Cc1cc(-c2cc(Cl)ccc2OCCn2c(C)nc3c(c2=O)C[C@@H](N2CCC[C@@H](C(F)F)C2)CC32CC2)c2scc(C(=O)O)c2n1` (single isomer, unassigned) [Compound 609], the IC50 is below 0.1 µM in experiment [1] and below 5 µM in experiment [2] (Homo sapiens, COLO 205, 72 h).

Regarding `Cc1nc2c(c(=O)n1CC#Cc1ccc(Cl)cc1-c1ccnc3c(C(=O)O)csc13)C[C@@H](N1CCC[C@@]3(C1)CC3(F)F)CC2` (single isomer, unassigned) [Compound 538, 7-(5-chloro-2-(3-(6-(1,1-difluoro-5-azaspiro[2.5]octan-5-yl)-2-methyl-4-oxo-5,6,7,8-tetrahydroquinazolin-3(4H)-yl)prop-1-yn-1-yl)phenyl)thieno[3,2-b]pyridine-3-carboxylic acid], the IC50 is below 0.1 µM in experiment [1] and below 5 µM in experiment [2] (Homo sapiens, COLO 205, 72 h).

Regarding `COC1(C(F)(F)F)CCN([C@H]2CCc3nc(C)n(CCOc4ccc(Cl)cc4-c4cc(C)nc5c(C(=O)O)csc45)c(=O)c3C2)CC1` (single isomer, unassigned) [Compound 451], the IC50 in experiment [1] is below 0.1 µM; in experiment [2] (Homo sapiens, COLO 205, 72 h) it was below 5 µM.

On to `Cc1cc(-c2cc(Cl)ccc2OCCn2c(C)nc3c(c2=O)CC(N2CCC(OC(F)(F)F)CC2)CC3)c2scc(C(=O)NS(=O)(=O)C3CC3)c2n1` (single isomer, unassigned) [Compound 417], for which the IC50 was below 0.1 µM in experiment [1] and below 5 µM in experiment [2] (Homo sapiens, COLO 205, 72 h).

In the case of `Cc1cc(-c2cc(Cl)ccc2OCCn2c(C)nc3c(c2=O)C[C@H](N2CCCC[C@H]2C)CC3)c2scc(C(=O)O)c2n1` (single isomer, unassigned) [Compound 408], the IC50 in experiment [1] is below 0.1 µM; in experiment [2] (Homo sapiens, COLO 205, 72 h), 5 to 20 µM.

Turning to `Cc1cc(-c2cc(Cl)ccc2OCCn2c(C)nc3c(c2=O)C[C@@H](N2CCC(c4ccc(F)cc4F)CC2)CC3)c2scc(C(=O)O)c2n1` (single isomer, unassigned) [Compound 419], the IC50 in experiment [1] was below 0.1 µM; in experiment [2] (Homo sapiens, COLO 205, 72 h), below 5 µM.

Turning to `Cc1cc(-c2cc(Cl)ccc2OCCn2c(C)nc3c(c2=O)C[C@@H](N2CCCC[C@H]2C)CC3)c2scc(C(=O)O)c2n1` (single isomer, unassigned) [Compound 437], the IC50 was below 0.1 µM in experiment [1] and 5 to 20 µM in experiment [2] (Homo sapiens, COLO 205, 72 h).

On to `COC1CCN([C@@H]2CCc3nc(C)n(CCOc4ccc(Cl)cc4-c4cc(C)nc5c(C(=O)O)csc45)c(=O)c3[C@@H]2C)CC1` (stereo in doubt) [Compound 103, 7-(5-chloro-2-(2-(6-(4-methoxypiperidin-1-yl)-2,5-dimethyl-4-oxo-5,6,7,8-tetrahydroquinazolin-3(4H)-yl)ethoxy)phenyl)-5-methylthieno[3,2-b]pyridine-3-carboxylic acid], for which the IC50 was below 0.1 µM in experiment [1] and 5 to 20 µM in experiment [2] (Homo sapiens, COLO 205, 72 h).

On to `Cc1cc(-c2cc(Cl)ccc2OCCn2c(C)nc3c(c2=O)C[C@@H](N2CCC(c4nc(C(F)(F)F)cs4)CC2)CC3)c2scc(C(=O)O)c2n1` (single isomer, unassigned) [Compound 578], for which the IC50 in experiment [1] was below 0.1 µM; in experiment [2] (Homo sapiens, COLO 205, 72 h), below 5 µM.

Regarding `Cc1cc(-c2cc(Cl)ccc2OCCn2c(C)nc3c(c2=O)C[C@H](N2CCC[C@@H](c4ccn(C)n4)C2)CC3)c2scc(C(=O)O)c2n1` (single isomer, unassigned) [Compound 447], the concentration for half-maximal inhibition (IC50) in experiment [1] was below 0.1 µM; in experiment [2] (Homo sapiens, COLO 205, 72 h), 5 to 20 µM.

`Cc1cc(-c2cc(Cl)ccc2OCCn2c(C)nc3c(c2=O)C[C@H](N2CCCCC(F)(F)C2)CC3)c2scc(C(=O)O)c2n1` (single isomer, unassigned) [Compound 469]: the IC50 was below 0.1 µM in experiment [1] and below 5 µM in experiment [2] (Homo sapiens, COLO 205, 72 h).

Turning to `Cc1cc(-c2cc(Cl)ccc2OCCn2c(C)nc3c(c2=O)C[C@@H](N2CCC(c4cn(C)cn4)CC2)CC3)c2scc(C(=O)O)c2n1` (single isomer, unassigned) [Compound 487], the IC50 in experiment [1] was below 0.1 µM; in experiment [2] (Homo sapiens, COLO 205, 72 h) it was above 20 µM.

As for `Cc1cc(-c2cc(Cl)ccc2OCCn2c(C)nc3c(c2=O)C[C@H](N2CCC[C@H](c4ncccc4F)C2)CC3)c2scc(C(=O)O)c2n1` (single isomer, unassigned) [Compound 464], the IC50 in experiment [1] is below 0.1 µM; in experiment [2] (Homo sapiens, COLO 205, 72 h) it was below 5 µM.

Regarding `Cc1cc(-c2cc(Cl)ccc2OCCn2c(C)nc3c(c2=O)C[C@H](N2CCC(c4cc(F)cc(F)c4F)CC2)CC3)c2scc(C(=O)O)c2n1` (single isomer, unassigned) [Compound 573], the half-maximal inhibitory concentration (IC50) in experiment [1] is below 0.1 µM; in experiment [2] (Homo sapiens, COLO 205, 72 h), below 5 µM.

For `Cc1csc(C2CCN([C@@H]3CCc4nc(C)n(CCOc5ccc(Cl)cc5-c5cc(C)nc6c(C(=O)O)csc56)c(=O)c4C3)CC2)n1` (single isomer, unassigned) [Compound 429], the IC50 in experiment [1] is below 0.1 µM; in experiment [2] (Homo sapiens, COLO 205, 72 h) it was below 5 µM.

Take `COC1CCN(C2(C)CCc3nc(C)n(CCOc4ccc(Cl)cc4-c4cc(C)nc5c(C(=O)O)csc45)c(=O)c3C2)CC1(C)C` (single isomer, unassigned) [Compound 559]: the IC50 in experiment [1] lay in the range of 0.1 to 0.5 µM; in experiment [2] (Homo sapiens, COLO 205, 72 h), 5 to 20 µM.

With `Cc1cc(-c2cc(Cl)ccc2OCCn2c(C)nc3c(c2=O)C[C@H](N2CCC[C@]4(C2)CC4(F)F)CC3(C)C)c2scc(C(=O)O)c2n1` (single isomer, unassigned) [Compound 438], the IC50 was below 0.1 µM in experiment [1] and below 5 µM in experiment [2] (Homo sapiens, COLO 205, 72 h).

Regarding `Cc1cc(-c2cc(Cl)ccc2OCCn2c(C)nc3c(c2=O)CC(N2CCC(C(F)F)CC2)CC3)c2scc(C(=O)O)c2n1` (stereo not shown) [Compound 124], the IC50 in experiment [1] was below 0.1 µM; in experiment [2] (Homo sapiens, COLO 205, 72 h), below 5 µM.

Regarding `Cc1cc(-c2cc(Cl)ccc2OCCn2c(C)nc3c(c2=O)C[C@H](N2CCCC[C@H]2C(F)(F)F)CC32CC2)c2scc(C(=O)O)c2n1` (single isomer, unassigned) [Compound 633], the IC50 was below 0.1 µM in experiment [1] and 5 to 20 µM in experiment [2] (Homo sapiens, COLO 205, 72 h).

In the case of `Cc1cc(-c2cc(Cl)ccc2OCCn2c(C)nc3c(c2=O)C[C@H](N2CCC[C@@]4(C2)CC4(F)F)CC3(C)C)c2scc(C(=O)O)c2n1` (single isomer, unassigned) [Compound 439], the IC50 is below 0.1 µM in experiment [1] and below 5 µM in experiment [2] (Homo sapiens, COLO 205, 72 h).

Consider `Cc1cc(-c2cc(Cl)ccc2OCCn2c(C)nc3c(c2=O)C[C@@H](N2CCC[C@@H](C(F)(F)F)C2)CC3)c2scc(C(=O)O)c2n1` (single isomer, unassigned) [Compound 383], for which the IC50 in experiment [1] is below 0.1 µM; in experiment [2] (Homo sapiens, COLO 205, 72 h) it was 5 to 20 µM.

With `COc1cc(CN(C)C2CCc3nc(C)n(CCOc4ccc(Cl)cc4-c4cc(C)nc5c(C(=O)NS(C)(=O)=O)csc45)c(=O)c3C2)ccn1` (single isomer, unassigned) [Compound 220], the IC50 was below 0.1 µM in experiment [1] and below 5 µM in experiment [2].

For the molecule `CO[C@@H]1CCN([C@H]2CCc3nc(C)n(CCOc4ccc(Cl)cc4-c4cc(C)nc5c(C(=O)O)csc45)c(=O)c3C2)CC1(C)C` (single isomer, unassigned) [Compound 377], the half-maximal inhibitory concentration (IC50) is below 0.1 µM in experiment [1] and below 5 µM in experiment [2] (Homo sapiens, COLO 205, 72 h).

For `Cc1cc(-c2cc(Cl)ccc2OCCn2c(C)nc3c(c2=O)C[C@@H](N2CCCC[C@@H]2c2cccc(F)c2)CC32CC2)c2scc(C(=O)O)c2n1` (single isomer, unassigned) [Compound 629, 7-(5-chloro-2-(2-(6′-(2-(3-fluorophenyl)piperidin-1-yl)-2′-methyl-4′-oxo-6′,7′-dihydro-4′H-spiro[cyclopropane-1,8′-quinazolin]-3′(5′H)-yl)ethoxy)phenyl)-5-methylthieno[3,2-b]pyridine-3-carboxylic acid], the IC50 lay in the range of 0.5 to 5 µM in experiment [1] and 5 to 20 µM in experiment [2] (Homo sapiens, COLO 205, 72 h).

Regarding `Cc1cc(-c2cc(Cl)ccc2OCCn2c(C)nc3c(c2=O)C[C@@H](N2CCC(OC(F)F)CC2)CC3)c2scc(C(=O)O)c2n1` (single isomer, unassigned) [Compound 360], the IC50 is below 0.1 µM in experiment [1] and below 5 µM in experiment [2] (Homo sapiens, COLO 205, 72 h).

For `Cc1cc(-c2cc(Cl)ccc2OCCn2c(C)nc3c(c2=O)C[C@@H](N2CCC4(CC2)NC(=O)NC4=O)CC3)c2scc(C(=O)O)c2n1` (single isomer, unassigned) [Compound 431], the IC50 in experiment [1] is below 0.1 µM; in experiment [2] (Homo sapiens, COLO 205, 72 h), below 5 µM.

Regarding `Cc1cc(-c2cc(Cl)ccc2OCCn2c(C)nc3c(c2=O)CC(N2CCC4(CN(CC(F)(F)F)CC(F)(F)C4)C2)CC3)c2scc(C(=O)O)c2n1` (single isomer, unassigned) [Compound 512], the concentration for half-maximal inhibition (IC50) in experiment [1] is below 0.1 µM; in experiment [2], below 5 µM.

For `Cc1cc(-c2cc(Cl)ccc2OCCn2c(C)nc3c(c2=O)C[C@@H](N2C[C@@H]4CC[C@H]2CC4OC(F)(F)F)CC32CC2)c2scc(C(=O)O)c2n1` (single isomer, unassigned) [Compound 605], the IC50 in experiment [1] was below 0.1 µM; in experiment [2] (Homo sapiens, COLO 205, 72 h), below 5 µM.

Take `Cc1cc(-c2cc(Cl)ccc2OCCn2c(C)nc3c(c2=O)C[C@H](N2CCC(c4cncc(S(=O)(=O)NC(C)(C)C)c4)CC2)CC3)c2scc(C(=O)O)c2n1` (single isomer, unassigned) [Compound 455]: the IC50 is below 0.1 µM in experiment [1] and below 5 µM in experiment [2] (Homo sapiens, COLO 205, 72 h).

Take `Cc1cc(-c2cc(Cl)c(=O)[nH]c2OCCn2c(C)nc3c(c2=O)CC(N(C)C2CC2)CC3)c2scc(C(=O)O)c2n1` (single isomer, unassigned) [Compound 233]: the half-maximal inhibitory concentration (IC50) was 0.5 to 5 µM in experiment [1] and above 20 µM in experiment [2] (Homo sapiens, COLO 205, 72 h).

On to `Cc1cc(-c2cc(Cl)ccc2OCCn2c(C)nc3c(c2=O)C[C@@H](N2CCC(c4cncc(S(=O)(=O)NC(C)(C)C)c4)CC2)CC3)c2scc(C(=O)O)c2n1` (single isomer, unassigned) [Compound 456], for which the IC50 in experiment [1] was below 0.1 µM; in experiment [2] (Homo sapiens, COLO 205, 72 h) it was 5 to 20 µM.
